Consider seven compounds from patent US20050107611A1, “Pyrazolyl-substituted triazoloquinoxalines” (priority 2001, published 2005).

For data set [1], the target named is T1, human A3 adenosine receptor (Homo sapiens, UniProt P0DMS8).
T1 construct: expressed in transfected cells; host or cells: CHO cells
T1 sequence (P0DMS8 1-318): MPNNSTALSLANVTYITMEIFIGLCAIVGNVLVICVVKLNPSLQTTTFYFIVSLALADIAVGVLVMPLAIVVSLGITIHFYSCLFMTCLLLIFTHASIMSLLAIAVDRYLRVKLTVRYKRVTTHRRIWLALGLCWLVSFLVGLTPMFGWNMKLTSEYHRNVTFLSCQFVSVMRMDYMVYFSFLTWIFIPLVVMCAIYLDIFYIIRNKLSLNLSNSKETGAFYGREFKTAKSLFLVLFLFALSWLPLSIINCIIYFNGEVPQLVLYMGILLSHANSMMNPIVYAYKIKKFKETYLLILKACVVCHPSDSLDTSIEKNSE
Put plainly: Receptor binding assay with [3H]PSB-11 on recombinant A3-adenosine receptors expressed in CHO cells. Particulars: for Ki: Table 2, [3H]PSB-11, read-out: A3 K1. An excerpt:
(§1) The data of the biological tests that are cited below results from radioligand-binding assays on A1, A2A, A2B and A3 adenosine receptors (ARs).
(§2) The following selective radioligands are used in the biological tests: • [^3H]CCPA (for A1 ARs) [Klotz et al., Naunyn-Schmiedeberg's Arch. Pharmacol., 340, 679 (1989)] • [^3]MSX-2 (for A2A ARs) [Muiller et al., Eur. J. Pharm. Sci., 10, 259 (2000)] • [^3H]ZM241385 (for A2B ARs_[X.-D. Ji, K. A. Jacobson, Drug Des. Discov., 16, 217 (1999)] • [^3H]PSB-11 (new antagonistic radioligand for human A3 ARs) [M. Dieckmann, M. Thorand, V. Ozola, C. E. Muiller, in Vorbereitung [Preparation] (2001)]. • [^125I]AB-MECA (for rat-A3 ARs) [Olah et al., Mol. Pharmacol., 45, 978 (1994)]. Description of the Assays That are Used for Testing Substances Production of Tissue Preparations Made from Rat Brains
For CHO cells, which express the A3-adenosine receptor, the operating steps are also performed analogously to the A1-adenosine receptor-CHO culture. The medium is used as described above.
Preparation of Recombinant Human A3-Adenosine Receptors Expressed in CHO Cells for A3-Adenosine Receptor Binding Studies
2 to 3 ml of ice-cold TRIS buffer (pH 7.4; 50 mmol) is added to the tissue culture dishes. The cells are scraped off from the plates with a rubber scraper and collected in a beaker. The plates are rinsed with another 1 to 2 ml of TRIS buffer (pH 7.4; 50 mmol). The cell suspension is dispersed into centrifuge tubes and centrifuged at 4° C., 35,000 g, for 20 minutes. The supernatant is discarded, and the pellet is resuspended in TRIS buffer (pH 7.4; 50 mmol) with the homogenizer at the highest level for 3 to 4 seconds. This suspension is again centrifuged. The washing process is repeated another time. The pellet that is obtained is resuspended with the least possible TRIS buffer (pH 7.4; 50 mmol) and delivered in aliquots (0.25 ml and 0.5 ml).
(§3) The test substances are dissolved in DMSO to 10 mmol. The final concentration of DMSO in the assay is 2.5% for A1- and A2A-adenosine receptor assays and 1-2% for A2B- and A3-assays. Dilution series of the test substances are produced from the stock solution. Five to eight different test concentrations, which comprise 3 orders of magnitude (e.g., 1 nm to 1000 nm), are used.
Receptor Binding Assay with [^3H]PSB-11 on Recombinant A3-Adenosine Receptors Expressed in CHO Cells:
The assay is performed with […] according to the instructions under the receptor-binding assays with consideration for the above-listed amounts and solutions. The dilution in the assay is 1:50. The DMSO content is 2% here. The incubation at 23° C. in the oscillating water bath lasts for 45 minutes.
(§4) The mean value is calculated from three independent experiments. IC50 and K, values are obtained from the Cheng-Prusoff equation, the concentration and the KD value of the radioligand. For calculation, the program GraphPadPrism™, Version 3.0 (GraphPad, San Diego, Calif., USA), was used.

Data set [2] addresses T2, A1 adenosine receptor (Rattus norvegicus, UniProt P25099).
T2 sequence (P25099 1-326): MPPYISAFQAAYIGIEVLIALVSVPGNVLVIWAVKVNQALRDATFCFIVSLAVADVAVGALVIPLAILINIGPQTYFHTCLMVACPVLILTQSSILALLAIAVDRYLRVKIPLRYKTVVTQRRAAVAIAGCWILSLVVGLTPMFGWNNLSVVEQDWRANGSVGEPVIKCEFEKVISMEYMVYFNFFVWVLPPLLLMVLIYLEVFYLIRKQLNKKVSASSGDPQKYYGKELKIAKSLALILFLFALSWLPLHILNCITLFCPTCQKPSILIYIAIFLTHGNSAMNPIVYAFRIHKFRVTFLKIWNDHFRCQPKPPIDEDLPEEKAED
Put plainly: Radioligand binding with [3H]CCPA on A1-adenosine receptors, rat brain cortex membranes. On the set-up: tissue Pel Freez Company (Rogers, Ark., USA); host or cells: rat brain cerebral cortex membranes. Particulars: for Ki: Table 2, [3H]CCPA, read-out: A1 K1.
Excerpt: as §1, §2
For the preparations, deep-frozen rat brains of the Pel Freez Company (Rogers, Ark., USA) are used. The rat brains are thawed in 0.32 M saccharose solution, the cortex is cut off, and the striata are prepared outside.
The cell decomposing of the cerebral cortex is carried out with a glass-Teflon homogenizer (stages 5-6, 10 seconds) in 0.32 M saccharose solution. The membranes are purified over various centrifuging steps. With centrifuging at 600 g, 4° C., for 10 minutes, a large amount of cell debris is separated via the P1 fraction, and the supernatant (P2 fraction) is further worked up: in the subsequent three centrifuging steps (35,000 g; 4° C.; 60 minutes), a pellet is produced that is resuspended in 50 mmol of TRIS buffer, pH 7.4 with the Ultraturrax (stages 3-4, 3 seconds); the respective supernatant is discarded. The striata are added to cold TRIS buffer, homogenized with the Ultraturrax in stages 3 to 4-(3 seconds) and then centrifuged at 35,000 g, 4° C., for 20 minutes. The supernatant is discarded, and the pellet is resuspended in 50 mmol of TRIS buffer (50 mmol, pH 7.4). The washing process is repeated twice more. The membrane preparations are stored at −80° C. and are held for several months. The cerebral cortex membrane preparation is used for A1-radioligand binding studies, and the striatum is used for A2A-radiologiand binding studies.
as §3
Radioligand Binding Studies with [^3H]CCPA on A1-Adenosine Receptors:
The mixture is incubated for 90 minutes in an oscillating water bath at 23° C. Then, it is filtered off with a Brandel cell-harvester and washed twice more with ice-cooled TRIS buffer, 50 mmol, pH 7.4 (3 ml). The filter plates are conveyed in scintillation vials, doused with 2.5 ml of Ultima Gold Scintillation cocktail and incubated for at least 6 hours before they are measured in a scintillation counter.
as §4

Data set [3] deals with A2A adenosine receptor (Rattus norvegicus, UniProt P30543). Particulars: Table 1, literature values; cited from earlier work.

As usually defined, the melting point is the temperature of the solid-liquid transition.

In the case of “4-(chloropyrazolyl)-1-(3-phenylpropyl)-[1,2,4-]triazolo[4,3-a]quinoxaline [Y = C—CH2—CH2—CH2-Ph, R5 = H, R6 = Cl]”, in data set [1], the “A3 % inhib. @ 1 μmol” value is reported as “(32%)” and the Ki is over 1000 nM. The Ki in data set [2] came to 6 nM.

Turning to `COc1ccc2c(c1)nc(-c1cc(Cl)n[nH]1)c1nnc(Cc3cccs3)n12` [4-[3(5)-Chloro-1H-pyrazol-5(3)-yl]-7-methoxy-1-(2-thienylmethyl)-[1,2,4]triazolo[4,3-a]-quinoxaline], the Ki in data set [1] is 1.9 nM; in data set [2], 900 nM.

On to `Clc1cc(-c2nc3ccccc3n3c(-c4ccoc4)nnc23)n[nH]1` [Y = C-(3-Furyl), R5 = H, R6 = Cl], for which, in data set [1], the “A3 % inhib. @ 1 μmol” value is recorded as “(31%)” and the Ki was over 1000 nM. The Ki in data set [2] was 320 nM.

`Cn1nc(-c2nc3ccccc3n3c(Cc4cccs4)nnc23)cc1Cl` [Y = C—CH2-(2-Thienyl), R5 = CH3, R6 = Cl, 4-(5-Chloro-1H-1-methyl-pyrazol-3-yl)-1-(2-thienylmethyl)-[1,2,4]triazolo[4,3-a]-quinoxaline] returned a melting point of 205 to 207 °C. In addition, in data set [1], the Ki came out at 86 nM. For the same compound, the Ki in data set [2] turned out to be 210 nM.

For the compound `COc1ccc2c(c1)nc(-c1cc(Cl)[nH]n1)c1nncn12` [Y = C—H, R3 = OCH3, R5 = H, R6 = Cl, 4-[3(5)-Chloro-1H-pyrazol-5(3)-yl]-7-methoxy-[1,2,4]triazolo[4,3-a]-quinoxaline], the Ki in data set [1] is 372 nM. Besides, in data set [2], the “A1 % inhib. @ 10 μmol” value is “(13%)” and the Ki was over 10000 nM.

Take `Clc1cc(-c2nc3ccccc3n3cnnc23)[nH]n1` [Y = C—H, R5 = H, R6 = Cl]: the Ki is 142 nM in data set [1] and over 10000 nM in data set [2]. Besides, in data set [3], the “A2A % Inhibition @ 25 μmol” value is “(21%)”. For the same compound, the “A1 % inhib. @ 10 μmol” value in data set [2] is “(35%)”.

With `Clc1cc(-c2nc3ccccc3n3nnnc23)n[nH]1` [Y = N, R5 = H, R6 = Cl, 4-[3(5)-Chloro-1H-pyrazol-5(3)-yl]tetrazolo[1,5-a]quinoxaline], in data set [1], the “A3 % inhib. @ 1 μmol” value is “(53%)”. The Ki in data set [2] amounted to 670 nM.
